This passage reports Ki results from patent US8017600B2, “Imidazole compounds” (Janssen Pharmaceutica NV, priority 2004, dated 2011).

The target of the test is T1, human histamine H4 receptor (Homo sapiens, UniProt Q9H3N8).
T1 construct: expressed in transfected cells; host or cells: SK-N-MC cells or COS7 cells, transient transfection; cell membranes
Briefly: Binding assay on recombinant human histamine H4 receptor (3H-histamine displacement). The conditions noted are these: membranes of SK-N-MC or COS7 cells expressing human H4 receptor, Cheng-Prusoff. The method, then:
SK-N-MC cells or COS7 cells were transiently transfected with pH4R and grown in 150 cm^2 tissue culture dishes. Cells were washed with saline solution, scraped with a cell scraper and collected by centrifugation (1000 rpm, 5 min). Cell membranes were prepared by homogenization of the cell pellet in 20 mM Tris-HCl with a polytron tissue homogenizer for 10 sec at high speed. Homogenate was centrifuged at 1000 rpm for 5 min at 4° C. The supernatant was then collected and centrifuged at 20,000×g for 25 min at 4° C. The final pellet was resuspended in 50 mM Tris-HCl. Cell membranes were incubated with ^3H-histamine (5-70 nM) in the presence or absence of excess histamine (10,000 nM). Incubation occurred at room temperature for 45 min. Membranes were harvested by rapid filtration over Whatman GF/C filters and washed 4 times with ice-cold 50 mM Tris HCl. Filters were then dried, mixed with scintillant and counted for radioactivity. SK-N-MC or COS7 cells expressing human histamine H4 receptor were used to measure the affinity of binding of other compounds and their ability to displace ^3H-ligand binding by incubating the above-described reaction in the presence of various concentrations of inhibitor or compound to be tested.

T1 sequence (Q9H3N8 whole entry): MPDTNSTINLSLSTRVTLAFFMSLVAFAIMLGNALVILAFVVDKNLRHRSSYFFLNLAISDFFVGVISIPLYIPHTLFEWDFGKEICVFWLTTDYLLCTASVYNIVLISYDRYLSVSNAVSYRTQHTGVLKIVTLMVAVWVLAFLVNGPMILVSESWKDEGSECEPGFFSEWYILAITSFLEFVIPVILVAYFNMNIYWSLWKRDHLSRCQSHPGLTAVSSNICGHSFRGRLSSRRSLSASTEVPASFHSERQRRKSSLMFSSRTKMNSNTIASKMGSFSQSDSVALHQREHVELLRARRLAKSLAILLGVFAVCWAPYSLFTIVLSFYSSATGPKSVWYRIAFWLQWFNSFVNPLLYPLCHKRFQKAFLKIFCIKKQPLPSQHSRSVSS

The Ki is a measure of affinity in units of concentration, obtained from inhibition or displacement. Regarding `CN1CCN(CCCOc2ccc(-c3nc(-c4ccc(Br)cc4)c(-c4ccc(Br)cc4)[nH]3)c(Cl)c2)CC1` [Example 1, 1-(3-{4-[4,5-Bis-(4-bromo-phenyl)-1H-imidazol-2-yl]-3-chloro-phenoxy}-propyl)-4-methyl-piperazine], the Ki was found to be 14 nM. Turning to `CN1CCN(CCCOc2ccc(-c3nc(-c4ccccc4)c(-c4ccccc4)[nH]3)c(Cl)c2)CC1` [Example 2, 1-{3-[3-Chloro-4-(4,5-diphenyl-1H-imidazol-2-yl)-phenoxy]-propyl}-4-methyl-piperazine], the Ki was 39 nM. Consider `CN1CCN(CCCOc2ccc(-c3nc(-c4ccccc4Cl)c(-c4ccccc4Cl)[nH]3)c(Cl)c2)CC1` [Example 3, 1-(3-{4-[4,5-Bis-(2-chloro-phenyl)-1H-imidazol-2-yl]-3-chloro-phenoxy}-propyl)-4-methyl-piperazine], for which the Ki came out at 244 nM. `COc1ccc(-c2nc(-c3ccc(OCCCN4CCN(C)CC4)cc3Cl)[nH]c2-c2ccc(OC)cc2)cc1` [Example 4, 1-(3-{4-[4,5-Bis-(4-methoxy-phenyl)-1H-imidazol-2-yl]-3-chloro-phenoxy}-propyl)-4-methyl-piperazine]: the Ki stood at 44 nM. For `Cc1ccc(-c2nc(-c3ccc(OCCCN4CCN(C)CC4)cc3Cl)[nH]c2-c2ccc(C)cc2)cc1` [Example 5, 1-{3-[3-Chloro-4-(4,5-di-p-tolyl-1H-imidazol-2-yl)-phenoxy]-propyl}-4-methyl-piperazine] the value was 24 nM.

Turning to `CN1CCN(CCCOc2ccc(-c3nc(-c4ccc(F)cc4)c(-c4ccc(F)cc4)[nH]3)c(Cl)c2)CC1` [Example 6, 1-(3-{4-[4,5-Bis-(4-fluoro-phenyl)-1H-imidazol-2-yl]-3-chloro-phenoxy}-propyl)-4-methyl-piperazine], the Ki turned out to be 29 nM.

Turning to `COc1cccc(-c2nc(-c3ccc(OCCCN4CCN(C)CC4)cc3Cl)[nH]c2-c2cccc(OC)c2)c1` [Example 7, 1-(3-{4-[4,5-Bis-(3-methoxy-phenyl)-1H-imidazol-2-yl]-3-chloro-phenoxy}-propyl)-4-methyl-piperazine], the Ki amounted to 21 nM. On to `COc1cccc(-c2nc(-c3ccc(OCCCN4CCN(C)CC4)c(F)c3)[nH]c2-c2cccc(OC)c2)c1` [Example 8, 1-(3-{4-[4,5-Bis-(3-methoxy-phenyl)-1H-imidazol-2-yl]-2-fluoro-phenoxy}-propyl)-4-methyl-piperazine], for which the Ki is 60 nM. As for `CN1CCCN(CCCOc2ccc(-c3nc(-c4ccc(Br)cc4)c(-c4ccc(Br)cc4)[nH]3)c(Cl)c2)CC1` [Example 9, 1-(3-{4-[4,5-Bis-(4-bromo-phenyl)-1H-imidazol-2-yl]-3-chloro-phenoxy}-propyl)-4-methyl-[1,4]diazepane], the Ki stood at 11 nM. For the compound `COc1cccc(-c2nc(-c3ccc(OCCCN4CCCN(C)CC4)cc3Cl)[nH]c2-c2cccc(OC)c2)c1` [Example 10, 1-(3-{4-[4,5-Bis-(3-methoxy-phenyl)-1H-imidazol-2-yl]-3-chloro-phenoxy}-propyl)-4-methyl-[1,4]diazepane], the Ki worked out at 6 nM.

On to `Cc1[nH]c(-c2ccc(OCCCN3CCCN(C)CC3)c(Cl)c2)nc1-c1ccccc1` [Example 11, 1-{3-[2-Chloro-4-(5-methyl-4-phenyl-1H-imidazol-2-yl)-phenoxy]-propyl}-4-methyl-[1,4]diazepane], for which the Ki stood at 70 nM.

For `CN1CCCN(CCCOc2ccc(-c3nc4c([nH]3)CCCC4)cc2Cl)CC1` [Example 12, 2-{3-Chloro-4-[3-(4-methyl-[1,4]diazepan-1-yl)-propoxy]-phenyl}-4,5,6,7-tetrahydro-1H-benzoimidazole], the Ki came out at 65 nM. With `CN1CCCN(CCCOc2ccc(-c3nc4c([nH]3)CCCC4)c(Cl)c2)CC1` [Example 13, 2-{2-Chloro-4-[3-(4-methyl-[1,4]diazepan-1-yl)-propoxy]-phenyl}-4,5,6,7-tetrahydro-1H-benzoimidazole], the inhibitory constant (Ki) worked out at 32 nM.

For `Cc1cc(OCCCC2CCN(C)CC2)ccc1-c1nc(-c2ccccc2)c(C(F)(F)F)[nH]1` [Example 14, 1-Methyl-4-{3-[3-methyl-4-(4-phenyl-5-trifluoromethyl-1H-imidazol-2-yl)-phenoxy]-propyl}-piperidine], the Ki is 32 nM. For `CN1CCC(CCCOc2ccc(-c3nc(-c4ccccc4)c(C(F)(F)F)[nH]3)c(Cl)c2)CC1` [Example 15, 4-{3-[3-Chloro-4-(4-phenyl-5-trifluoromethyl-1H-imidazol-2-yl)-phenoxy]-propyl}-1-methyl-piperidine] the value was 38 nM.

With `Cc1[nH]c(-c2ccc(OCCCC3CCN(C)CC3)cc2Cl)nc1-c1cccc(C(F)(F)F)c1` [Example 16, 4-(3-{3-Chloro-4-[5-methyl-4-(3-trifluoromethyl-phenyl)-1H-imidazol-2-yl]-phenoxy}-propyl)-1-methyl-piperidine], the Ki worked out at 165 nM. Regarding `Cc1[nH]c(-c2ccc(OCCCC3CCN(C)CC3)cc2Cl)nc1-c1cc(Cl)cc(Cl)c1` [Example 17, 4-(3-{3-Chloro-4-[4-(3,5-dichloro-phenyl)-5-methyl-1H-imidazol-2-yl]-phenoxy}-propyl)-1-methyl-piperidine], the Ki is 52 nM. Consider `Cc1cc(OCCCC2CCN(C)CC2)ccc1-c1nc(-c2cc(Cl)cc(Cl)c2)c(C)[nH]1` [Example 18, 4-(3-{4-[4-(3,5-Dichloro-phenyl)-5-methyl-1H-imidazol-2-yl]-3-methyl-phenoxy}-propyl)-1-methyl-piperidine], for which the Ki came out at 45 nM. For `Cc1[nH]c(-c2ccc(OCCCC3CCN(C)CC3)cc2Cl)nc1-c1ccc(Cl)cc1` [Example 19, 4-(3-{3-Chloro-4-[4-(4-chloro-phenyl)-5-methyl-1H-imidazol-2-yl]-phenoxy}-propyl)-1-methyl-piperidine] the value was 22 nM; for `CN1CCC(CCCOc2ccc(-c3nc(-c4ccc(F)cc4)c(-c4ccc(F)cc4)[nH]3)c(Cl)c2)CC1` [Example 20, 4-(3-{4-[4,5-Bis-(4-fluoro-phenyl)-1H-imidazol-2-yl]-3-chloro-phenoxy}-propyl)-1-methyl-piperidine], 39 nM; for `COc1cccc(-c2nc(-c3ccc(OCCCC4CCN(C)CC4)cc3Cl)[nH]c2-c2cccc(OC)c2)c1` [Example 21, 4-(3-{4-[4,5-Bis-(3-methoxy-phenyl)-1H-imidazol-2-yl]-3-chloro-phenoxy}-propyl)-1-methyl-piperidine], 37 nM.

Turning to `Cc1ccc(-c2[nH]c(-c3ccc(OCCCC4CCN(C)CC4)cc3Cl)nc2-c2ccc(Cl)cc2)cc1` [Example 22, 4-(3-{3-Chloro-4-[4-(4-chloro-phenyl)-5-p-tolyl-1H-imidazol-2-yl]-phenoxy}-propyl)-1-methyl-piperidine], the Ki was 29 nM. With `CN1CCC(CCCOc2ccc(-c3nc4c([nH]3)CCCC4)c(Cl)c2)CC1` [Example 23, 2-{2-Chloro-4-[3-(1-methyl-piperidin-4-yl)-propoxy]-phenyl}-4,5,6,7-tetrahydro-1H-benzoimidazole], the Ki came out at 155 nM. For the compound `CCCc1[nH]c(-c2ccc(OCCCC3CCN(C)CC3)cc2Cl)nc1C` [Example 24, 4-{3-[3-Chloro-4-(4-methyl-5-propyl-1H-imidazol-2-yl)-phenoxy]-propyl}-1-methyl-piperidine], the Ki was 69 nM.

On to `CCc1[nH]c(-c2ccc(OCCCC3CCN(C)CC3)cc2Cl)nc1C` [Example 25, 4-{3-[3-Chloro-4-(5-ethyl-4-methyl-1H-imidazol-2-yl)-phenoxy]-propyl}-1-methylpiperidine], for which the Ki was found to be 100 nM. `Cc1cc(OCCOC2CCN(C)CC2)ccc1-c1nc(-c2cccc(C(F)(F)F)c2)c(C)[nH]1` [Example 26, 1-Methyl-4-(2-{3-methyl-4-[5-methyl-4-(3-trifluoromethyl-phenyl)-1H-imidazol-2-yl]-phenoxy}-ethoxy)-piperidine]: the Ki worked out at 300 nM.

With `Cc1[nH]c(-c2ccc(OCCCC3CCN(C)CC3)nc2)nc1-c1cc(Cl)cc(Cl)c1` [Example 27, 5-[4-(3,5-Dichloro-phenyl)-5-methyl-1H-imidazol-2-yl]-2-[3-(1-methyl-piperidin-4-yl)-propoxy]-pyridine], the Ki is 290 nM. Take `Cc1[nH]c(-c2ccc(OCCCC3CCN(C)CC3)nc2)nc1-c1ccc(Cl)cc1` [Example 28, 5-[4-(4-Chloro-phenyl)-5-methyl-1H-imidazol-2-yl]-2-[3-(1-methyl-piperidin-4-yl)-propoxy]-pyridine]: the Ki turned out to be 72 nM. For the compound `Cc1[nH]c(-c2ccc(OCCCC3CCN(C)CC3)nc2)nc1-c1cccc(C(F)(F)F)c1` [Example 29, 2-[3-(1-Methyl-piperidin-4-yl)-propoxy]-5-[5-methyl-4-(3-trifluoromethyl-phenyl)-1H-imidazol-2-yl]-pyridine], the Ki is 42 nM. Consider `Cc1[nH]c(-c2ccc(OCCCC3CCN(C)CC3)nc2)nc1-c1ccc(C(F)(F)F)cc1` [Example 30, 2-[3-(1-Methyl-piperidin-4-yl)-propoxy]-5-[5-methyl-4-(4-trifluoromethyl-phenyl)-1H-imidazol-2-yl]-pyridine], for which the Ki amounted to 64 nM. For `CN1CCC(CCCOc2ccc(-c3nc(-c4ccccc4)c(C(F)(F)F)[nH]3)cn2)CC1` [Example 31, 2-[3-(1-Methyl-piperidin-4-yl)-propoxy]-5-(4-phenyl-5-trifluoromethyl-1H-imidazol-2-yl)-pyridine] the value was 186 nM.
